Laboratory results published in the NIST ThermoML archive (doi:10.1021/acs.jced.5b00181).
± gives the expanded uncertainty stated by the source.

Assays:
[1] = 101 kPa, Liquid; for viscosity: Falling or rolling sphere viscometry; for speed of sound: Frequency=3 MHz, Sing-around technique in a fixed-path interferometer; for mass density: Vibrating tube method
[2] = xn = mol fraction of the nth substance listed; conditions: 101 kPa, Liquid, x2 = 0; for viscosity: Falling or rolling sphere viscometry; for speed of sound: Frequency=3 MHz, Sing-around technique in a fixed-path interferometer; for mass density: Vibrating tube method

SMILES	viscosity ([2]; 278.15 K) [mPa·s]	speed of sound ([2]; 278.15 K) [m/s]	mass density ([2]; 278.15 K) [kg/m3]	viscosity ([2]; 298.15 K) [mPa·s]	speed of sound ([2]; 298.15 K) [m/s]	mass density ([2]; 298.15 K) [kg/m3]	viscosity ([2]; 318.15 K) [mPa·s]	speed of sound ([2]; 318.15 K) [m/s]	mass density ([2]; 318.15 K) [kg/m3]	viscosity ([2]; 338.15 K) [mPa·s]	speed of sound ([2]; 338.15 K) [m/s]	mass density ([2]; 338.15 K) [kg/m3]	also measured
CCCO [propan-1-ol]	–	–	–	–	–	–	–	–	–	–	–	–	viscosity ([1]; 278.15 K): 3.191 ± 0.072 mPa·s; speed of sound ([1]; 278.15 K): 1275.5 ± 0.82 m/s; mass density ([1]; 278.15 K): 815.46 ± 2 kg/m3; viscosity ([1]; 298.15 K): 1.936 ± 0.07 mPa·s; speed of sound ([1]; 298.15 K): 1205.3 ± 0.8 m/s; mass density ([1]; 298.15 K): 799.55 ± 2 kg/m3; viscosity ([1]; 318.15 K): 1.242 ± 0.069 mPa·s; speed of sound ([1]; 318.15 K): 1137.5 ± 0.78 m/s; mass density ([1]; 318.15 K): 783.18 ± 2 kg/m3; viscosity ([1]; 338.15 K): 0.836 ± 0.068 mPa·s; speed of sound ([1]; 338.15 K): 1070.8 ± 0.76 m/s; mass density ([1]; 338.15 K): 765.96 ± 2 kg/m3
CCCO [propan-1-ol] + CCCCCC[n+]1ccn(C)c1.O=S(=O)([N-]S(=O)(=O)C(F)(F)F)C(F)(F)F	3.191 ± 0.072	1275.5 ± 0.82	815.46 ± 2	1.936 ± 0.07	1205.3 ± 0.8	799.55 ± 2	1.242 ± 0.069	1137.5 ± 0.78	783.18 ± 2	0.836 ± 0.068	1070.8 ± 0.76	765.96 ± 2	–
CCCO [propan-1-ol] + CCCC[n+]1ccn(C)c1.O=S(=O)([N-]S(=O)(=O)C(F)(F)F)C(F)(F)F	3.191 ± 0.072	1275.5 ± 0.82	815.46 ± 2	1.936 ± 0.07	1205.3 ± 0.8	799.55 ± 2	1.242 ± 0.069	1137.5 ± 0.78	783.18 ± 2	0.836 ± 0.068	1070.8 ± 0.76	765.96 ± 2	–
CCCO [propan-1-ol] + CCn1cc[n+](C)c1.O=S(=O)([N-]S(=O)(=O)C(F)(F)F)C(F)(F)F	3.191 ± 0.072	1275.5 ± 0.82	815.46 ± 2	1.936 ± 0.07	1205.3 ± 0.8	799.55 ± 2	1.242 ± 0.069	1137.5 ± 0.78	783.18 ± 2	0.836 ± 0.068	1070.8 ± 0.76	765.96 ± 2	–
